These results are taken from ChEMBL document CHEMBL2346571 (Bioorg Med Chem, 2013).

For one assay, the target named is Cannabinoid receptor 1 (Homo sapiens, UniProt P21554). As to the kind of experiment: Displacement of [3H]-CP55940 from human CB1 receptor after 90 mins by liquid scintillation spectrophotometer analysis.
Assay [1] has as its system Rattus norvegicus. The experiment in a line: Antiobesity activity in Wistar rat assessed as reduction of food intake at 3 mg/kg, ip after 30 to 240 mins. The assay is classed as functional, organism-based. Also noted: dose 3 mg/kg.
The target in a further assay is Cannabinoid receptor 2 (Homo sapiens, UniProt P34972). The experiment in a line: Displacement of [3H]-CP55940 from human CB2 receptor after 90 mins by liquid scintillation spectrophotometer analysis.
The test system of assay [2] is Rattus norvegicus. As to the kind of experiment: Antiobesity activity in Wistar rat assessed as reduction of food intake at 3 mg/kg, ip. The assay is classed as functional, organism-based. Also on record: dose 3 mg/kg.
Assay [3] deals with Rattus norvegicus. As to the kind of experiment: Antiobesity activity in Wistar rat assessed as reduction of food intake at 3 mg/kg, ip after 60 to 240 mins. The assay is classed as functional, organism-based. Also on record: dose 3 mg/kg.
Assay [4] relates to Rattus norvegicus. The experiment in a line: Antiobesity activity in Wistar rat assessed as reduction of food intake at 3 mg/kg, ip after 30 mins. The assay is classed as functional, organism-based. Also noted: dose 3 mg/kg.
Assay [5] deals with Rattus norvegicus. The experiment in a line: Increase of food intake in Wistar rat at 3 mg/kg, ip after 30 to 240 mins. The assay is classed as functional, organism-based. Also on record: dose 3 mg/kg.

Activity calls are given as the source filed them. No cut-off for these calls is given here.

Cannabinoid receptor 2, sequence (P34972 whole entry): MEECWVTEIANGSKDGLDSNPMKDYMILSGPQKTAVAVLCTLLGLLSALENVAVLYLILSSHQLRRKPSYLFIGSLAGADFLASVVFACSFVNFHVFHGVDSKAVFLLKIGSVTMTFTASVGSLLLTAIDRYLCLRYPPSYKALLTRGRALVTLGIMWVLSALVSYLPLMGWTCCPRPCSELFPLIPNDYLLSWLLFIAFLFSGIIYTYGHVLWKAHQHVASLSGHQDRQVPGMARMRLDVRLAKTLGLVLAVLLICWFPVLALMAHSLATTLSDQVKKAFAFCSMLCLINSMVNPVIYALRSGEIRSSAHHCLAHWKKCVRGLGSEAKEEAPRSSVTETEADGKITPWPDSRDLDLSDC
Cannabinoid receptor 1, sequence (P21554 whole entry): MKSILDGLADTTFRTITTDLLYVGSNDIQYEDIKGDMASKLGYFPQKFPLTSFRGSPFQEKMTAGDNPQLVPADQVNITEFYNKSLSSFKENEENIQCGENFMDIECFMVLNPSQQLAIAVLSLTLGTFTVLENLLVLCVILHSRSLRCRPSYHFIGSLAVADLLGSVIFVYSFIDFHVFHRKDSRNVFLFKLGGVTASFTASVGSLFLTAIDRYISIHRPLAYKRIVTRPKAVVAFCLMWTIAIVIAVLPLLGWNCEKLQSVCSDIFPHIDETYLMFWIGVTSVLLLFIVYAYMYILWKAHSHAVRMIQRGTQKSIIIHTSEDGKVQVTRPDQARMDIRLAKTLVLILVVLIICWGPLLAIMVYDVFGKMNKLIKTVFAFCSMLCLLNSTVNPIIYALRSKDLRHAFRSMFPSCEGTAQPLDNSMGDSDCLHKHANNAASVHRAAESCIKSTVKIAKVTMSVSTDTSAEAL

For orientation: Ki means the dissociation constant of the complex between target and ligand, obtained from inhibition or displacement. As for `CCCCCCCC/C=C\CCCCCCCCNC(=O)c1nn(-c2ccccc2)c(-c2ccccc2)c1C`, the Ki on Cannabinoid receptor 1 and at Cannabinoid receptor 2 was > 40 µM each time. Moreover, in the assay with Rattus norvegicus [1], the result was inactive.
Regarding `CCCCCc1cc(-c2ccc(Cl)cc2)n(-c2ccc(Cl)cc2Cl)n1`, the Ki at Cannabinoid receptor 1 is > 40 µM; on Cannabinoid receptor 2, 0.458 µM. Further, the result with Rattus norvegicus [2] was Active.
Consider `CCCCCCc1nc(-c2ccc(Cl)cc2)n(-c2ccc(Cl)cc2Cl)n1`, for which the Ki at Cannabinoid receptor 1 was 0.829 µM; on Cannabinoid receptor 2, 3.08 µM.
Turning to `CCCCCCc1cc(-c2ccc(Cl)cc2)n(-c2ccc(Cl)cc2Cl)n1`, the Ki on Cannabinoid receptor 1 and on Cannabinoid receptor 2 was > 40 µM throughout.
Take `O=C(NN1CCCCC1)c1cc(-c2ccccc2)n(-c2ccccc2)n1`: the Ki on Cannabinoid receptor 1 is 4.59 µM; on Cannabinoid receptor 2, 27.9 µM. Besides, in the assay with Rattus norvegicus [3], the outcome was Active. Besides, in the assay with Rattus norvegicus [4], the outcome was inactive.
Consider `CCCCCCCCCCCCCCCCNC(=O)c1nc(-c2ccc(Cl)cc2)n(-c2ccc(Cl)cc2)n1`, for which the Ki on Cannabinoid receptor 1 and on Cannabinoid receptor 2 was > 10 µM in each case. Moreover, in the assay on Rattus norvegicus [1], the outcome was Active.
As to `CCCCCCCCCCCCCCCCNC(=O)c1cc(-c2ccccc2)n(-c2ccccc2)n1`, the Ki on Cannabinoid receptor 1 was > 40 µM; on Cannabinoid receptor 2, > 10 µM. For the same compound, in the assay with Rattus norvegicus [1], the result was Active.
For `Cc1c(C(=O)NN2CCCCC2)nn(-c2ccccc2)c1-c1ccccc1`, the results for the Ki on Cannabinoid receptor 1 and on Cannabinoid receptor 2 were 9.69 µM and 18.2 µM, respectively. Also, the outcome in the assay with Rattus norvegicus [5] was Active.
`CCCCCc1cc(-c2ccccc2)n(-c2ccccc2)n1`: the Ki at Cannabinoid receptor 1 was 6.16 µM; at Cannabinoid receptor 2, 2.94 µM.
`CCCCCCCC/C=C\CCCCCCCCNC(=O)c1cc(-c2ccccc2)n(-c2ccccc2)n1`: the Ki on Cannabinoid receptor 1 and at Cannabinoid receptor 2 was > 40 µM throughout. Also, the result with Rattus norvegicus [1] was inactive.
As for `CCCCCCCC/C=C\CCCCCCCCNC(=O)c1nc(-c2ccc(Cl)cc2)n(-c2ccc(Cl)cc2)n1`, the Ki at Cannabinoid receptor 1 and at Cannabinoid receptor 2 was > 40 µM each time. Further, the outcome in the assay with Rattus norvegicus [1] was inactive.
`CCCCCCCCCCCCCCCCNC(=O)c1nn(-c2ccccc2)c(-c2ccccc2)c1C`: the Ki at Cannabinoid receptor 1 and at Cannabinoid receptor 2 was > 10 µM throughout. The result in the assay on Rattus norvegicus [1] was Active.
